From patent publication US7632783B2 (priority 2004, dated 2009)

Columns and labels:
[1] = tested on: rice blast (Pyricularia oryzae); assay type: in vivo; settings: potted rice (variety Karakaze), spraying liquid 300 ppm after spore inoculation, observed 7 days after inoculation, levels 0 to 3
[2] = tested on: gray mold (Botrytis cinerea); test: Tomato gray mold control test (preventive effects); assay type: in vivo; settings: potted tomato (giant Fukuju variety), spraying liquid 300 ppm before spore inoculation, investigated 2 days after inoculation, levels 0 to 3
Description: Bulk drug was dissolved in a mixed solution of dimethylsulfoxide and methanol (volume ratio: 7/3), and spraying liquids containing 300 ppm of compounds of the present invention were uniformly sprayed onto potted test plants (tomato: giant Fukuju variety) in the second to third leaf stage. […], a suspension of pathogen spores were inoculated by spraying onto the pots in an inoculation room at a room temperature of 20 to 23° C. to promote the onset of disease. The degree of disease onset was investigated 2 days after inoculation. The test was carried out in duplicate.
Furthermore, the degree of disease onset was evaluated to one of four levels from 0 to 3 according to the criteria below by macroscopically observing the degree of disease onset of the test plants.
1: Degree of disease onset less than 40% of the untreated area
2: Degree of disease onset 40% to less than 80% of the untreated area
3: Degree of disease onset 80% or more

Row | Molecule | degree of disease onset [1] | degree of disease onset [2]
1 | 3-(5-fluoro-3,3-dimethyl-3,4-dihydroisoquinolin-1-yl)quinoline salicylate [Example 108] | 0 | 0
2 | CC1(C)Cc2c(F)cccc2C(c2cnc3ccccc3c2)=N1 [Example 2, 3-(5-fluoro-3,3-dimethyl-3,4-dihydroisoquinolin-1-yl)quinoline] | 0 | 0
3 | Cc1cccc2cc(C3=NC(C)(C)Cc4c(F)cccc43)cnc12 [Example 14, 3-(5-fluoro-3,3-dimethyl-3,4-dihydroisoquinolin-1-yl)-8-methylquinoline] | 0 | 0
4 | CC1(C)Cc2c(Cl)cccc2C(c2cnc3ccccc3c2)=N1 [Example 18, 3-(5-chloro-3,3-dimethyl-3,4-dihydroisoquinolin-1-yl)quinoline] | 0 | 0
5 | CC1(C)Cc2cc(Cl)ccc2C(c2cnc3ccccc3c2)=N1 [Example 20, 3-(6-chloro-3,3-dimethyl-3,4-dihydroisoquinolin-1-yl)quinoline] |  | 0
6 | CC1(C)Cc2ccc(Cl)cc2C(c2cnc3ccccc3c2)=N1 [Example 21, 3-(7-chloro-3,3-dimethyl-3,4-dihydroisoquinolin-1-yl)quinoline] | 0 | 0
7 | CC1(C)Cc2c(Br)cccc2C(c2cnc3ccccc3c2)=N1 [Example 22, 3-(5-bromo-3,3-dimethyl-3,4-dihydroisoquinolin-1-yl)quinoline] | 0 | 0
8 | CC1(C)Cc2cc(Br)ccc2C(c2cnc3ccccc3c2)=N1 [Example 23, 3-(6-bromo-3,3-dimethyl-3,4-dihydroisoquinolin-1-yl)quinoline] |  | 0
9 | C#Cc1cccc2c1CC(C)(C)N=C2c1cnc2ccccc2c1 [Example 30, 3-(5-ethynyl-3,3-dimethyl-3,4-dihydroisoquinolin-1-yl)quinoline] | 0 | 0
10 | CC(=NOc1ccccc1)c1cccc2c1CC(C)(C)N=C2c1cnc2ccccc2c1 [Example 44, 1-(3,3-dimethyl-1-quinolin-3-yl-3,4-dihydroisoquinolin-5-yl)ethanone=O-phenyloxime] |  | 0
11 | CC1(C)Cc2c(C#N)cccc2C(c2cnc3ccccc3c2)=N1 [Example 51, 3-(5-cyano-3,3-dimethyl-3,4-dihydroisoquinolin-1-yl)quinoline] | 0 | 0
12 | CC1(C)Cc2c(ccc(F)c2F)C(c2cnc3ccccc3c2)=N1 [Example 52, 3-(5,6-difluoro-3,3-dimethyl-3,4-dihydroisoquinolin-1-yl)quinoline] | 0 | 0
13 | CC1(C)Cc2c(ccc(Cl)c2Cl)C(c2cnc3ccccc3c2)=N1 [Example 53, 3-(5,6-dichloro-3,3-dimethyl-3,4-dihydroisoquinolin-1-yl)quinoline] |  | 0
14 | CCC1(C)Cc2c(F)cccc2C(c2cnc3ccccc3c2)=N1 (stereo not shown) [Example 56, 3-(3-ethyl-5-fluoro-3-methyl-3,4-dihydroisoquinolin-1-yl)quinoline] | 0 | 0
15 | CCCC1(C)Cc2c(F)cccc2C(c2cnc3ccccc3c2)=N1 (stereo not shown) [Example 58, 3-(5-fluoro-3-methyl-3-propyl-3,4-dihydroisoquinolin-1-yl)quinoline] | 0 | 0
16 | CC1(CCl)Cc2ccccc2C(c2cnc3ccccc3c2)=N1 (stereo not shown) [Example 66, 3-(3-chloromethyl-3-methyl-3,4-dihydroisoquinolin-1-yl)quinoline] | 0 | 0

Row | Molecule | degree of disease onset [1] | degree of disease onset [2]
17 | CC1(C(F)(F)F)Cc2ccccc2C(c2cnc3ccccc3c2)=N1 (stereo not shown) [Example 68, 3-(3-trifluoromethyl-3-methyl-3,4-dihydroisoquinolin-1-yl)quinoline] | 0 | 0
18 | CC1(CC(F)(F)F)Cc2ccccc2C(c2cnc3ccccc3c2)=N1 (stereo not shown) [Example 69, 3-(3-trifluoroethyl-3-methyl-3,4-dihydroisoquinolin-1-yl)quinoline] | 0 | 0
19 | CC1(c2ccccc2)Cc2ccccc2C(c2cnc3ccccc3c2)=N1 (stereo not shown) [Example 71, 3-(3-methyl-3-phenyl-3,4-dihydroisoquinolin-1-yl)quinoline] | 0 | 0
20 | CC1(c2ccc(F)cc2)Cc2ccccc2C(c2cnc3ccccc3c2)=N1 (stereo not shown) [Example 72, 3-[3-(4-fluorophenyl)-3-methyl-3,4-dihydroisoquinolin-1-yl]quinoline] | 0 | 0
21 | CC1(c2ccc(Cl)cc2)Cc2ccccc2C(c2cnc3ccccc3c2)=N1 (stereo not shown) [Example 73, 3-[3-(4-chlorophenyl)-3-methyl-3,4-dihydroisoquinolin-1-yl]quinoline] | 0 | 0
22 | Fc1ccc(C2(CCl)Cc3ccccc3C(c3cnc4ccccc4c3)=N2)cc1 (stereo not shown) [Example 75, 3-[3-chloromethyl-3-(4-fluorophenyl)-3,4-dihydroisoquinolin-1-yl]quinoline] | 0 | 0
23 | Clc1ccc2c(c1)CC1(CCCCC1)N=C2c1cnc2ccccc2c1 [Example 92, 6′-chloro-1′-quinolin-3-yl-4′H-spiro[cyclohexane-1,3′-isoquinoline]] |  | 0
24 | CC1c2c(F)cccc2C(c2cnc3ccccc3c2)=NC1(C)C (stereo not shown) [Example 120, 3-(5-fluoro-3,3,4-trimethyl-3,4-dihydroisoquinolin-1-yl)quinoline] |  | 0
25 | CC1c2c(Cl)cccc2C(c2cnc3ccccc3c2)=NC1(C)C (stereo not shown) [Example 121, 3-(5-chloro-3,3,4-trimethyl-3,4-dihydroisoquinolin-1-yl)quinoline] |  | 0
26 | CC1(C)N=C(c2cnc3ccccc3c2)c2cccc(Cl)c2C1(C)C [Example 123, 3-(5-chloro-3,3,4,4-tetramethyl-3,4-dihydroisoquinolin-1-yl)quinoline] |  | 0
27 | CC1(C)N=C(c2cnc3ccccc3c2)c2ccc(Cl)cc2C1(C)C [Example 154, 3-(6-chloro-3,3,4,4-tetramethyl-3,4-dihydroisoquinolin-1-yl)quinoline] |  | 0
28 | CC1(C)N=C(c2cnc3ccccc3c2)c2cccc(F)c2C1(C)C.CS(=O)(=O)O [Example 159, 3-(5-fluoro-3,3,4,4-tetramethyl-3,4-dihydroisoquinolin-1-yl)quinoline methanesulfonate] |  | 0
29 | C=C1c2c(F)cccc2C(c2cnc3ccccc3c2)=NC1(C)C [Example 175, 3-(5-fluoro-3,3-dimethyl-4-methylene-3,4-dihydroisoquinolin-1-yl)quinoline] |  | 0
30 | CN1C(c2cnc3ccccc3c2)c2cccc(F)c2C(C)(C)C1(C)C (stereo not shown) [Example 191, 3-(5-fluoro-2,3,3,4,4-pentamethyl-1,2,3,4-tetrahydroisoquinoline-1-yl)quinoline] |  | 0
31 | CC1(C)c2ccc(F)cc2C(c2cnc3ccccc3c2)=[N+]([O-])C1(C)C [Example 210, 3-(7-fluoro-3,3,4,4-tetramethyl-2-oxide-3,4-dihydroisoquinolin-1-yl)quinoline] | 0 | 
